Measurements: article PMC5557796, “Ligand binding modes from low resolution GPCR models and mutagenesis: chicken bitter taste receptor as a test-case” (Scientific Reports, 2017)

What was measured:
ggTas2r1 [1] = target: T1, ggTas2r1 (Gallus gallus, UniProt Q2AB83); assay: FLIPR calcium mobilization, Fluo4-AM; format: cell-based; conditions: agonist, HEK 293T with Galpha16gust44
T1 construct: gene TAS2R40; full-length receptor with in-frame N-terminal sst3-tag and C-terminal hsv-tag in pcDNA5/FRT; transient in HEK 293T stably expressing chimeric Galpha16gust44
T1 sequence (Q2AB83 1-311): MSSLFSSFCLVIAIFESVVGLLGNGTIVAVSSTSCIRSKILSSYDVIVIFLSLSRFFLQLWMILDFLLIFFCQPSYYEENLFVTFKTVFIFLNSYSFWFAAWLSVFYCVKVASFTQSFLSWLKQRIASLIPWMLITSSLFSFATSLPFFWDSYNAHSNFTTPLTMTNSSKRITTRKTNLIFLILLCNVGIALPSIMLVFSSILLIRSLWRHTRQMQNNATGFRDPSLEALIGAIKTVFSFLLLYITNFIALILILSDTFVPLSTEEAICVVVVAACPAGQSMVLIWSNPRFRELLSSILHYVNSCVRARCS

ggTas2r1 [2] = target: T1, ggTas2r1; assay: FLIPR calcium mobilization, Fluo4-AM; format: cell-based; conditions: agonist; HEK 293T with Galpha16gust44; 2.5 mM probenecid in dye loading

Structure (SMILES)	dose-response ΔF/F (ggTas2r1 [1])	further results
O=C(N[C@H](CO)[C@H](O)c1ccc([N+](=O)[O-])cc1)C(Cl)Cl [chloramphenicol]	at high chloramphenicol concentration the maximal signal amplitude is comparable to the native receptor	
CN(C)CCC(c1ccc(Cl)cc1)c1ccccn1 (stereo not drawn) [chlorpheniramine]	The functional data for receptor constructs stimulated with chlorpheniramine ranges from wild-type like receptor	
O=c1ccc2ccccc2o1 [coumarin]	The small compound coumarin is only a weak agonist for ggTas2r1	
OC(CCCN1CCCCC1)(c1ccccc1)c1ccccc1 [diphenidol]	variable decrease in responses compared to the wild-type ggTas2r1 upon stimulation with diphenidol	
C=C[C@H]1CN2CC[C@H]1C[C@@H]2[C@@H](O)c1ccnc2ccc(OC)cc12 [quinidine]		threshold concentration (ggTas2r1 [2]): ~ 0.3 µM
C=C[C@H]1CN2CC[C@H]1C[C@H]2[C@H](O)c1ccnc2ccc(OC)cc12 [quinine]		dose-response ΔF/F (ggTas2r1 [1]; tested as quinine sulfate): subjected to calcium-mobilization assays using different concentrations of quinine sulfate
